From patent publication EP4620468A1, “BUTASELEN-CYCLODEXTRIN INCLUSION COMPLEX, PHARMACEUTICAL COMPOSITION, METHOD FOR PREPARING SAME, AND USE THEREOF” (Shanghai Yuanxi Medicine Corp., priority 2022, dated 2024)
Converted amounts (≈) assume the structure as drawn.

Legend:
[1] = Body weight and general condition of U87 tumor-bearing nude mice during administration; type: in vivo, Balb/c nude mice
Experimental: (§1) The general condition of the animals and the time of tumor occurrence were recorded daily during the experiment, a long diameter and a short diameter of tumors in the mice were recorded daily, and a tumor volume was calculated according to a formula: long diameter×(short diameter)^2×0.5236, and a body weight of the animals were measured every 3 days. After 18 days of administration, anesthesia was performed with chloral hydrate, and eyeballs were removed for blood collection. The mice were sacrificed, tumors, hearts, livers, spleens, lungs, kidneys, thymuses, whole brains, and intestines were rapidly isolated, blood stains were washed away with ice saline, the tumors, hearts, livers, spleens, lungs, kidneys, thymuses, whole brains, and intestines were wiped to be dry with filter paper, whether there were lesions in internal organs of the animals were observed, and the tumors, hearts, livers, spleens, lungs, kidneys, thymuses, whole brains, and intestines were weighed. A portion of tumor tissue was taken and stored in liquid nitrogen for RNA and protein extraction. Another portion of tumor tissue was placed in a tissue fixative solution for fixation. Distribution of the Se content in brain tissue was detected by Inductively coupled plasma-Mass Spectrometry (ICP-MS).

[2] = Distribution of BS in brain tissue of ICR mice after intraperitoneal injection, ICP-MS; type: in vivo; conditions: female, mouse, ip, intraperitoneal injection 90 mg/kg
Experimental: The distribution of BS in mouse brain tissue was examined as follows: Brain glioma is located in the skull and has a special lesion location. Thus, it is critical whether a drug can cross the blood-brain barrier and act at the lesion site. In order to detect whether BS can reach brain tissue through the blood-brain barrier, female six-week-old ICR mice were selected for the study. The mice were intraperitoneally injected with 90 mg/kg of BS, and brain tissues before administration and brain tissues at 0.5 h, 1 h, 2 h and 3 h after administration were taken for ICP-MS detection. The BS content per gram of brain tissue was calculated by detecting the selenium content per gram of brain tissue.

[3] = Distribution of BS in brain tissue of U87 nude mice by ICP-MS (selenium content); type: in vivo; conditions: Balb/c nude, mouse, BS 30 mg/kg, injection dosage form (intraperitoneal), after the experiment, calculated from selenium content
Experimental: as §1, with “A portion of tumor tissue was taken and stored in liquid nitrogen for RNA and protein extraction. Another portion of tumor tissue was placed in a tissue fixative solution for fixation.” left out
Brain tissues of the mice after the experiment of BS+TMZ gavage (90+10 mg/kg) and BS intraperitoneal injection (30 mg/kg) were taken and detected by ICP-MS. By detecting the selenium content per gram of brain tissue, the BS content per gram of brain tissue was calculated. […]

[4] = tested on: high-grade astrocytoma in human spinal cord; test: Subcutaneous patient-derived xenograft (PDX) mouse model of high-grade astrocytoma in human spinal cord; type: in vivo, NPG mice; conditions: for tumor sizes at the end of the experiment: no unit at the values (tumor volume formula in mm^3), in mm³; for tumor volume inhibition rate: end of experiment
Experimental: • 1) Grouping of animals: the animals were subcutaneously inoculated with tumor tissue pieces, and after tumors were formed in the animals, the animals were grouped based on a principle of a similar mean tumor volume; • 2) Mode of administration: intraperitoneal injection of BS and TMZ (i.p., q.d.×17 days); • 3) Detection indexes: mouse body weight and subcutaneous tumor volume.
BS injections, with a drug content being 30 mg of BS and 90 mg of BS; and 1 mg of TMZ was weighed and dissolved in 1 ml of 0.5% CMC-Na and the obtained solution was uniformly dispersed by an ultrasound-assisted manner to obtain a TMZ drug solution, which was prepared immediately before use each time.
• Animal species: NPG mice, Animal grade: SPF grade, and Sex and number: female, 32 • Animal weight range: 20-25 g, Animal age range: 5-6 weeks old, and Animal source: Beijing Vitalstar Biotechnology Co., Ltd.
The animals were randomly divided into four groups according to Table 5, with 8 animals in each group of a control group, a BSL group, a BSH group and a TMZ group.
Tumor masses (2-3 mm^3) of high-grade astrocytoma in a human spinal cord were prepared and inoculated in right axillas of NPG mice, and after inoculation, a mouse status was routinely observed and the tumor size was measured. Screening was performed according to the tumor volume, animals with a tumor volume of 450 mm^3 were selected for the experiment, and those with an excessive tumor volume and no tumor formation were not selected. A total of 32 suitable tumor-bearing animals were screened for the experiment, and were divided into 4 experimental groups, with 8 mice in each group. The day of first administration was recorded as D1, a second day of administration was recorded as D2, and so on. All animals were administered through single daily intraperitoneal injection for 24 consecutive days.
During the experiment, a long diameter and a short diameter of the tumors in all the animals were measured daily. And a tumor volume (mm^3) was calculated and a formula was as follows: Tumor volume=0.5236×long diameter×short diameter×short diameter.

[5] = tested on: U87 brain glioma subcutaneous model; test: Administration by injection (intraperitoneal) experiment of U87 brain glioma subcutaneous model in Balb/c nude mice; type: in vivo
Excerpt: After 2 days of animal acclimation, qualified animals were retained and randomized into 5 groups, with 6 animals in each group of a control group, a TMZ group, and a BS group. There were 5 animals in each group of the BS+TMZ treatment group and the BS+TMZ prevention group. Mice in the BS group were inoculated subcutaneously in right axillas with U87 cells at 2×10^6/mouse. Administration was started to be performed 14 days after inoculation, which was day 0 of treatment. Administration was performed for a total of 18 days.
A drug treatment regimen was as follows: Blank control group (0.9% NaCl, i.p., q.d.); TMZ group (10 mg/kg, i.p., qd.); BS group (30 mg/kg, i.p., q.d.); BS+TMZ treatment group (10 mg/kg of TMZ, i.p., qd., and 90 mg/kg of BS, i.g., q.d.); BS+TMZ prevention group (10 mg/kg of TMZ, i.p., qd., and 90 mg/kg of BS, i.g., q.d.). […] were injected into tail veins.
as §1
Female six-week-old Balb/c Nude mice were selected to establish an animal model and inoculated subcutaneously with U87 human-derived glioma cells at 2×10^6/mouse. Administration was started to be performed on day 14 after inoculation, and was continued to be performed for 18 days.
To compare the difference in efficacy between oral gavage administration and intraperitoneal injection administration, the control group, the TMZ group (10 mg/Kg) and the BS group (30 mg/Kg) were administered intraperitoneally once a day in this round of experiment. The mice in the control group were given 0.9% NaCl.
To compare the therapeutic efficacy and preventive efficacy of the combined application of BS and TMZ, combined administration groups were set in this round of experiment: a BS+TMZ treatment group (90 mg/Kg of BS&10 mg/Kg of TMZ) and a BS+TMZ prevention group (90 mg/Kg of B S& 10 mg/Kg of TMZ). The B S+TMZ treatment group was abbreviated as a BS+TMZ (A) group, and tumors with a volume of more than 20 mm^3 were normally formed in the mice on day 14 after U87 inoculation, and the administration was started to be performed to observe the efficacy of the combined use on inhibiting tumor proliferation. The BS+TMZ prevention group is abbreviated as a BS+TMZ (B) group, and tumors with a volume of less than 20 mm^3 were formed in the mice on day 14 after U87 inoculation, and the administration was started to observe the efficacy of the combined use on the prevention of tumor formation. The mice in the combined groups were administered by single daily oral gavage. The start time of administration was Day 1, a second day of administration was Day 2, and so on.

[6] = Solubility of butaselen in water; type: physicochemical
[7] = tested on: U87 brain glioma subcutaneous model; test: Gavage administration experiment of U87 brain glioma subcutaneous model in Balb/c nude mice; type: in vivo; conditions: BS 90 mg/kg, oral administration (i.g., q.d.), 11 days
Experimental: After 2 days of animal acclimation, qualified animals were retained and randomized into 6 groups, with 7 animals in each group. Mice were inoculated subcutaneously in right axillas with U87 cells at 2×10^6/mouse. Administration was started to be performed 12 days after inoculation, which was day 0 of treatment. Administration was performed for a total of 11 days.
A drug treatment regimen was as follows: Blank control group (0.5% CMC-Na, i.g., q.d.); TMZ group (30 mg/kg, i.g., q.d.); BSL group (10 mg/kg, i.g., q.d.); BSM group (90 mg/kg, i.g., q.d.); BSH group (180 mg/kg, i.g., q.d.); and BSM+TMZ group (30 mg/kg of TMZ, 90 mg/kg of BS, i.g., q.d.).
The general condition of the animals and the time of tumor occurrence were recorded daily during the experiment, a long diameter and a short diameter of tumors in the mice were recorded daily, and a tumor volume was calculated according to a formula: long diameter×(short diameter)^2×0.5236, and a body weight of the animals were measured every 3 days. After 18 days of administration, anesthesia was performed with chloral hydrate, and eyeballs were removed for blood collection. […] Distribution of the Se content in brain tissue was detected by Inductively coupled plasma-Mass Spectrometry (ICP-MS).

[8] = Body weight and clinical observation of NPG mice during administration; type: in vivo; conditions: BS 30 and 90 mg/kg, intraperitoneal injection
Experimental: All animals were observed once a day during the experiment period. The observation content included death or dying, feces, a feeding status, a mental status, and behavioral activities, etc. If any abnormal situation was found, it was recorded in time. All animals were weighed once before grouping, three times per week after administration, and once before euthanasia.
No clinical abnormal symptoms or animal deaths due to drug toxicity were observed during this experiment.

[9] = BS 30 mg/kg, intraperitoneal injection, q.d., 18 days, end of experiment
[10] = BS 30 mg/kg, intraperitoneal, end of experiment
[11] = TMZ 10 mg/kg, intraperitoneal, experiment in this group ended early on day 12

For `O=c1c2ccccc2[se]n1CCCCn1[se]c2ccccc2c1=O` [BS, butaselen], the “toxic and side effects on tumor-bearing nude mice” value ([1]; BS group, BS+TMZ (A) and (B) groups, normal diet, activities, mental status) was “no obvious toxic and side effects”, the concentration at 0.5 h ([2]; 0.5 h after administration) was 439 ng/g and the concentration at 1 h ([2]; 1 h after administration) was 372 ng/g. It also gave a concentration at 2 h ([2]; 2 h after administration (peak)) of 528 ng/g, a concentration at 3 h ([2]; 3 h after administration) of 419 ng/g and a concentration at 18 days [3] of 121 ng/g. For the same compound, the “tumor sizes at the end of the experiment” value ([4]; BS 30 mg/kg i.p. q.d.) was 4593.83±2725.69, the “tumor sizes at the end of the experiment” value ([4]; BS 90 mg/kg i.p. q.d.) was 2999.76±2191.03 and the “tumor volume inhibition rate” value ([4]; high-dose BS group (90 mg/kg i.p.)) was 35.19%. For the same compound, the “tumor volume inhibition rate” value ([4]; low-dose BS group (30 mg/kg i.p.)) was -10.54%, the “Tumor volume (mm^3)” value [5, 9] was 105.18±66.62 mm^3 and the “Volume inhibition rate (%)” value [5, 9] was 81.12%. For the same compound, the “Tumor weight” value [5, 10] was 0.13 ± 0.08 g, the “Weight inhibition rate (%)” value [5, 10] was 66.67% and the solubility [6] was about 0.15 µg/mL (≈ 0.333 µM). The “Tumor volume (mm^3)” value [7] was 122.05±33.15 mm^3, the “Volume inhibition rate (%)” value [7] was 78.87% and the “toxic and side effects on the NPG mice” value [8] was “no obvious toxic and side effects”. The weight loss ([8]; NPG mice) was “no significant weight loss”.
With `Cn1nnc2c(C(N)=O)ncn2c1=O` [TMZ, temozolomide, reference compound] the “body weight of the mice” value ([1]; TMZ group (30 mg/Kg as printed), U87 tumor-bearing nude mice, group ended on day 12) was “significantly decreased”, the “tumor sizes at the end of the experiment” value ([4]; TMZ 5 mg/kg i.p. q.d.) was 2693.29±1682.23 and the “tumor volume inhibition rate” value ([4]; TMZ group (5 mg/kg i.p.)) was 27.82%. The “Tumor volume (mm^3)” value [5, 11] was 343.23±245.20 mm^3 and the “Tumor weight” value [5, 11] was 0.19 ± 0.08 g.
